Reference: US5283246A, “Trimetazidine compounds” (Adir et Compagnie, priority 1991, dated 1994)

What was measured:
isolated hearts of rats = assay: Hypoxia reoxygenation on the isolated heart of a rat; design: species or system Wistar rat; settings: for functional recovery of the hearts during reoxygenation / reduction of the developing contracture at the end of 30 minutes reoxygenation: Example 1 at 3×10^-7 M, 10 at 10^-7 M, 13 at 7×10^-7 M; for functional recovery of the hearts during reoxygenation: 40% in the control experiments; for reduction of the developing contracture at the end of 30 minutes reoxygenation: vs control; for Contracture, hypoxia 10 min / Contracture, hypoxia 30 min / Contracture, hypoxia 60 min / Contracture, reoxygenation 15 min / Contracture, reoxygenation 30 min: Example 1 at 3 × 10^-7 M, Example 10 at 10^-7 M, Example 13 at 7 × 10^-7 M; for Contracture, hypoxia 10 min: control 23.7 ± 6.8; for Contracture, hypoxia 30 min: control 33.7 ± 8.9; for Contracture, hypoxia 60 min: control 32.3 ± 7.4; for Contracture, reoxygenation 15 min: control 20.6 ± 7.8; for Contracture, reoxygenation 30 min: control 12.3 ± 6.1
Procedure: The hearts of male Wistar rats (325-375 g--Charles River breed) anaesthetized by the intraperitoneal route with sodium pentobarbital (30 mg/kg) are removed after the injection of heparin i.v. (1 ml/kg) and rapidly perfused by the Langendorff technique at a constant pressure of 76 mmhg and stimulated electrically at 5 Hz. The isovolumetric contractions are recorded by way of a small polyethylene balloon connected to a pressure sensor (P23-Gould) introduced into the left ventricle and inflated so as to obtain a diastolic pressure of approximately 10 mmhg. The physiological solution used, maintained at 37° C., has the following composition (mM): NaCl 118; KCl 4.7; KH2 PO4 1.2; MgCl2 1.2; CaCl2 1.3; NaHCO3 25; glucose 8, pH 7.4/95% O2 +5% CO2.
After a period of stabilization of from 15 to 30 minutes, the heart is subjected to hypoxia for 60 minutes (effected with 95% N2 and 5% CO2; PO2 <40 mmHg), followed by reoxygenation for 30 minutes; the compound is added to the incubation medium 15 minutes before and during the period of hypoxia.

human LDLs = assay: Modification of human LDLs by copper sulphate (lipid peroxidation, MDA production); assay type: biochemical; settings: copper sulphate 5×10^-6 M, 24 hours; read-out: IC50, inhibition of copper-induced modification (MDA production) of human LDLs
Procedure: Human LDLs are incubated for 24 hours in the presence of copper sulphate (5×10^-6 M) and in the absence or presence of the compounds tested (10^-7 M to 10^-4 M). After incubation, the peroxidation of the LDLs is evaluated by electrophoresis on agar gel and by the formation of one of the products of lipid peroxidation malonic dialdehyde (MDA), (Parthasarathy S., Young S. G., Witztum J. L., Pittman R. C. and Steinberg, D.; J. Clin. invest. 77; 641-644, 1986).
The activity of the tested compounds is evaluated by calculating those concentrations (IC50) that reduce the production of MDA by 50% compared with control experiments in the absence of the tested compound.

rat aorta = assay: Study on isolated vessels: vascular relaxing effect on a rat aorta contracted by potassium (80 mM); design: species or system Wistar rat; settings: rat aorta rings without endothelium contracted by potassium (80 mM)
Procedure: The thoracic aorta of Wistar rats (325-375 g) that have been anaesthetized by the intraperitoneal route with sodium pentobarbital (30 mg/kg) is removed and dissected into rings 3 mm in length; the endothelium is removed by gentle abrasion using a piece of wood. Each ring is connected to a Statham pressure sensor (UC2-Gould). The initial pressure applied is 2.5 g. The physiological solution used, maintained at 37° C., has the following composition (mM): NaCl 112; KCl 5; KH2 PO4 1; MgSO4 1.2; CaCl2 2.5; NaHCO3 25; glucose 11.; EDTA 0.026. After a stabilization period of 90 minutes, the aorta rings are subjected to a hyperpotassic medium (80 MM KCl and 37 mM NaCl). When the contraction is stable, cumulative concentrations of compound are added to the medium every 15 minutes. The relaxation values obtained enable calculation of the IC50.

cardiac cells = assay: Oxidative necrosis of cardiac cells induced by hypoxanthine/xanthine-oxidase (XO + HX); assay type: cell-based, rat (newborn); settings: Rattus norvegicus, 4 h; for activity at 10 µM: 10^-5 M, read-out: necrosis index of cardiac cells, XO + HX, compound 10^-5 M; for activity at 10 µM / activity at 1 µM / activity at 0.1 µM: XO + HX, control XO + HX = 100.0; for activity at 1 µM: 10^-6 M, read-out: necrosis index of cardiac cells, XO + HX, compound 10^-6 M; for activity at 0.1 µM: 10^-7 M, read-out: necrosis index of cardiac cells, XO + HX, compound 10^-7 M; for minimal effective concentration: XO + HX induced oxidative necrosis, read-out: concentration at which compounds prove to be protective against necrosis
Procedure: The cardiac cells of newborn rats are used between the 5th and 6th days after placing in culture. Oxidative necrosis is induced by the free radical-producing enzymatic system hypoxanthine (HX, 1 -mm) and xanthineoxidase (XO, 10 mU/ml). The necrosis is evaluated 4 hours after the addition of XO/HX by measuring by spectrophotometry the cytosolic α-hydroxybutyrate dehydrogenase (a-HBDH) activity liberated in the supernatant. The cells are treated with the test compounds 16 hours and 1 hour before the beginning of the experiment after renewing the medium. At the beginning of the experiment, the treatment is carried out again one last time.
Table 3 lists the necrosis indices of cardiac cells induced by the hypoxanthine/xanthine-oxidase system alone or in the presence of increasing concentrations of the compounds of the invention.

COc1ccc(CN2CCN(CCCOc3cc(C)c(O)c(C)c3C)CC2)c(OC)c1OC [Example 1, 4-(2,3,4-trimethoxybenzyl)-1-[3-(4-hydroxy-2,3,5-trimethylphenoxy)propyl]piperazine]
functional recovery of the hearts during reoxygenation (isolated hearts of rats): more than 70% | reduction of the developing contracture at the end of 30 minutes reoxygenation (isolated hearts of rats): more than 70% | Contracture, hypoxia 10 min (isolated hearts of rats): 21.0 ± 5.8 mm Hg | Contracture, hypoxia 30 min (isolated hearts of rats): 22.5 ± 2.5 mm Hg | Contracture, hypoxia 60 min (isolated hearts of rats): 21.0 ± 3.9 mm Hg | Contracture, reoxygenation 15 min (isolated hearts of rats): 12.5 ± 5.1 mm Hg | Contracture, reoxygenation 30 min (isolated hearts of rats): 2.5 ± 2.5 mm Hg | IC50 (human LDLs): 90 nM | IC50 (rat aorta): 5000 nM | activity at 10 µM (cardiac cells): 13.9 ± 5.3% | activity at 1 µM (cardiac cells): 55.4 ± 6.4% | activity at 0.1 µM (cardiac cells): 70.4 ± 2.5% | minimal effective concentration (cardiac cells): ≥ 0.1 µM

COc1ccc(CN2CCN(CCC(C)(C)Sc3cc(C(C)(C)C)c(O)c(C(C)(C)C)c3)CC2)c(OC)c1OC [Example 2, 4-(2,3,4-trimethoxybenzyl)-1-[3-(4-hydroxy-3,5-di-tert.-butylphenylthio)-3,3-dimethylpropyl]piperazine]
IC50 (human LDLs): 3000 nM

COc1ccc(CN2CCN(CCCOc3cc(C(C)(C)C)c(O)c(C(C)(C)C)c3)CC2)c(OC)c1OC [Example 3, 4-(2,3,4-trimethoxybenzyl)-l-[3-(4-hydroxy-3,5-di-tert.-butylphenoxy)propyl]piperazine]
IC50 (human LDLs): 500 nM | activity at 10 µM (cardiac cells): 37.6 ± 2.7% | activity at 1 µM (cardiac cells): 16.9 ± 1.1% | activity at 0.1 µM (cardiac cells): 72.6 ± 5.7% | minimal effective concentration (cardiac cells): ≥ 0.1 µM

COc1ccc(CN2CCN(CCCc3cc(C(C)(C)C)c(O)c(C(C)(C)C)c3)CC2)c(OC)c1OC [Example 4, 4-(2,3,4-trimethoxybenzyl)-l-[3-(4-hydroxy-3,5-di-tert.-butylphenyl)propyl]piperazine]
IC50 (human LDLs): 2000 nM | activity at 10 µM (cardiac cells): 10.2 ± 3.1% | activity at 1 µM (cardiac cells): 22.3 ± 6.5% | activity at 0.1 µM (cardiac cells): 103 ± 12%

COc1ccc(CN2CCN(CC(O)COc3cc(C(C)(C)C)c(O)c(C(C)(C)C)c3)CC2)c(OC)c1OC (stereo not drawn) [Example 5, 4-(2,3,4-trimethoxybenzyl)-l-[3-(4-hydroxy-3,5-di-tert.-butylphenoxy)-2-hydroxypropyl]piperazine]
IC50 (human LDLs): 900 nM

COc1ccc(CN2CCN(CC(O)CSc3cc(C(C)(C)C)c(O)c(C(C)(C)C)c3)CC2)c(OC)c1OC (centres unmarked) [Example 6, 4-(2,3,4-trimethoxybenzyl)-I-[3-(4-hydroxy-3,5-di-tert.-butylphenylthio)-2-hydroxypropyl]piperazine]
IC50 (human LDLs): 300 nM | IC50 (rat aorta): 2700 nM | activity at 10 µM (cardiac cells): 8.3 ± 1.4% | activity at 1 µM (cardiac cells): 7.7 ± 0.1% | activity at 0.1 µM (cardiac cells): 99.5 ± 7.5%

COc1ccc(CN2CCN(CCCSc3cc(C(C)(C)C)c(O)c(C(C)(C)C)c3)CC2)c(OC)c1OC [Example 7, 4-(2,3,4-trimethoxybenzyl)-I-[3-(4-hydroxy-3,5-di-tert.-butylphenylthio)propyl]piperazine]
IC50 (human LDLs): 600 nM | activity at 10 µM (cardiac cells): 27.9 ± 3.4% | activity at 1 µM (cardiac cells): 19.3 ± 0.9% | activity at 0.1 µM (cardiac cells): 85.9 ± 1.7%

COc1ccc(CN2CCN(CCCCCOc3cc(C(C)(C)C)c(O)c(C(C)(C)C)c3)CC2)c(OC)c1OC [Example 8, 4-(2,3,4-trimethoxybenzyl)-l-[5-(4-hydroxy-3,5-di-tert.-butylphenoxy)pentyl]piperazine]
IC50 (human LDLs): 1000 nM | activity at 10 µM (cardiac cells): 27.2 ± 2% | activity at 1 µM (cardiac cells): 21.6 ± 4.2% | activity at 0.1 µM (cardiac cells): 91.4 ± 3.1%

COc1ccc(CN2CCN(CCCCCSc3cc(C(C)(C)C)c(O)c(C(C)(C)C)c3)CC2)c(OC)c1OC [Example 9, 4-(2,3,4-trimethoxybenzyl)-l-[5-(4-hydroxy-3,5-di-tert.-butylphenylthio)pentyl]piperazine]
IC50 (human LDLs): 80 nM | activity at 10 µM (cardiac cells): 33.3 ± 6.6% | activity at 1 µM (cardiac cells): 15.2 ± 2% | activity at 0.1 µM (cardiac cells): 53 ± 5.5% | minimal effective concentration (cardiac cells): ≥ 0.1 µM

COc1ccc(CN2CCN(CC(O)COc3cc(C)c(O)c(C)c3C)CC2)c(OC)c1OC (stereo not drawn) [Example 11, 4-(2,3,4-trimethoxybenzyl)-l-[3-(4-hydroxy-2,3,5-trimethylphenoxy)-2-hydroxypropyl]piperazine]
IC50 (human LDLs): 600 nM | activity at 10 µM (cardiac cells): 18 ± 2.9% | activity at 1 µM (cardiac cells): 70.9 ± 8.3% | activity at 0.1 µM (cardiac cells): 114 ± 5.2%

COc1ccc(CN2CCN(CC(C)(C)CSc3cc(C(C)(C)C)c(O)c(C(C)(C)C)c3)CC2)c(OC)c1OC [Example 12, 4-(2,3,4-trimethoxybenzyl)-l-[3-(4-hydroxy-3,5-di-tert.-butylphenylthio)-2,2-dimethylpropyl]piperazine]
IC50 (human LDLs): 800 nM

COc1ccc(CN2CCN(CC(O)CSc3cc(C)c(O)c(C)c3C)CC2)c(OC)c1OC (stereo not drawn) [Example 13, 4-(2,3,4-trimethoxybenzyl)-l-[3-(4-hydroxy-2,3,5-trimethylphenylthio)-2-hydroxypropyl)piperazine]
functional recovery of the hearts during reoxygenation (isolated hearts of rats): more than 70% | reduction of the developing contracture at the end of 30 minutes reoxygenation (isolated hearts of rats): more than 70% | Contracture, hypoxia 10 min (isolated hearts of rats): 11.0 ± 4.4 mm Hg | Contracture, hypoxia 30 min (isolated hearts of rats): 15.0 ± 6.1 mm Hg | Contracture, hypoxia 60 min (isolated hearts of rats): 13.5 ± 6.3 mm Hg | Contracture, reoxygenation 15 min (isolated hearts of rats): 6.0 ± 6.0 mm Hg | Contracture, reoxygenation 30 min (isolated hearts of rats): 3.5 ± 3.5 mm Hg | IC50 (human LDLs): 70 nM | IC50 (rat aorta): 4300 nM | activity at 10 µM (cardiac cells): 15.1 ± 0.6% | activity at 1 µM (cardiac cells): 64.7 ± 0.4% | activity at 0.1 µM (cardiac cells): 100 ± 4.8%
